Test results published in PubChem BioAssay (NCI).
Where “and” joins values, the source holds several entries; their conditions need not be identical. Equal values may be shown once.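 Exposure lasted 48 hours, with cells grown in 96-well plates and compounds tested at five concentrations. GI50 is the concentration that inhibits growth by half. The concentration for full growth arrest is given as TGI.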

Assays:
Assay in all cases: inhibition of tumour cell growth, NCI panel, 48 h
PC-3 prostate = system: PC-3 prostate
TK-10 renal = system: TK-10 renal
CCRF-CEM leukemia = system: CCRF-CEM leukemia
OVCAR-3 ovarian = system: OVCAR-3 ovarian
LOX IMVI melanoma = system: LOX IMVI melanoma
786-0 renal = system: 786-0 renal
UACC-62 melanoma = system: UACC-62 melanoma
T-47D breast = system: T-47D breast
U251 CNS = system: U251 CNS
RPMI-8226 leukemia = system: RPMI-8226 leukemia

| Structure (SMILES) | TGI (PC-3 prostate) [µM] | TGI (TK-10 renal) [µM] | TGI (CCRF-CEM leukemia) [µM] | TGI (OVCAR-3 ovarian) [µM] | TGI (LOX IMVI melanoma) | TGI (786-0 renal) | TGI (UACC-62 melanoma) | TGI (T-47D breast) [µM] | TGI (U251 CNS) [µM] | TGI (RPMI-8226 leukemia) | GI50 (PC-3 prostate) | GI50 (TK-10 renal) | GI50 (CCRF-CEM leukemia) | GI50 (OVCAR-3 ovarian) | GI50 (LOX IMVI melanoma) [µM] | GI50 (786-0 renal) | GI50 (UACC-62 melanoma) | GI50 (T-47D breast) | GI50 (U251 CNS) [µM] | GI50 (RPMI-8226 leukemia) |
| --- | --- | --- | --- | --- | --- | --- | --- | --- | --- | --- | --- | --- | --- | --- | --- | --- | --- | --- | --- | --- |
| NC(=O)/C=C/c1c[nH]c2nccnc12 | 26.1 | 6.26 | 7.4 | > 39.5 | 4.63 µM | > 100 µM | 8.85 µM | 23.5 | > 100 | > 100 µM |  |  |  |  |  |  |  |  |  |  |
| CCOC(=O)CC1C(CNC(=O)NC)OC(n2cnc3c(NC(=O)Nc4ccccc4)ncnc32)C1O[Si](C)(C)C(C)(C)C (stereo not drawn) | 4.85 | 40.5 | 88.6 | 17.2 | > 100 µM | 5.21 µM | > 100 µM | > 100 | 20.9 | 4.57 µM | 2.25 µM | 12.4 µM | 6.69 µM | 4.59 µM | 5.46 | 2 µM | > 100 µM | 2.55 µM | 4.69 | 1.09 µM |
| C#CCn1c2c(c3ccccc3c1=O)C(=O)c1ccccc1-2 | > 100 | 61.6 | > 100 | 29.6 | > 100 µM | 32 µM | 57.1 µM | 69.4 | 42.5 | > 100 µM |  |  |  |  |  |  |  |  |  |  |
| COc1ccc2c(ccc3oc([N+](=O)[O-])cc32)c1 | 3.63 | 0.854 | > 40.7 | 0.57 | 0.312 µM | 0.667 µM | 0.333 µM | 8.05 | 0.578 | 0.81 µM | 0.305 µM | 0.278 µM | 0.09 µM | 0.225 µM | 0.0551 | 0.218 µM | 0.158 µM | 0.448 µM | 0.197 | 0.247 µM |
| COc1ccccc1N1CCN(CC(O)Cn2c(=O)c3c(OC)nc(C)cc3c(=O)n2-c2ccccc2)CC1 (stereo not drawn) | > 100 | 81.7 | > 100 | > 100 | > 100 µM | 76.9 µM | > 100 µM | > 100 | > 100 | > 100 µM | 43 µM | 19.4 µM | > 100 µM | > 100 µM | 30.5 | 24.3 µM | 64.9 µM | > 100 µM | 31.6 | 39.6 µM |
| COc1cc(-c2cn(-c3ccc(F)cc3)c(=O)[nH]2)cc(OC)c1OC | > 100 | > 100 | > 100 | > 100 | > 100 µM | > 100 µM | > 100 µM | > 100 | > 100 | > 100 µM | > 100 µM | > 100 µM | > 100 µM | > 100 µM | > 100 | > 100 µM | > 100 µM | > 100 µM | > 100 | > 100 µM |
| COc1ccc(/C=N/C2=NNC(C)(c3ccccc3O)N2C(Cc2c[nH]c3ccccc23)C(=O)O)cc1 (stereo not drawn) | 11.6 | 10.9 | 40.4 | 11.7 | 10.1 µM | 13 µM | 5.53 µM | 12.2 | 11.6 | 7.65 µM | 2.68 µM | 5.01 µM | 3.04 µM | 3.05 µM | 2.68 | 3.36 µM | 1.86 µM | 1.55 µM | 3.44 | 2.14 µM |
| COc1ccc2c3c1OC1C4(CCC5C(C2)N(CC2CC2)CCC351)OCCO4 (stereo not drawn) | > 100 | > 100 | > 100 | > 100 | > 100 µM | > 100 µM | > 100 µM | > 100 | > 100 | > 100 µM |  |  |  |  |  |  |  |  |  |  |
| CN1CCN(c2ccc(NC(=O)c3cncnc3Nc3ccc4c(ccn4Cc4cccc(F)c4)c3)cc2)CC1 | 6.74 | 11.1 | 2.66 | 8.48 | 1.16 µM | 1.37 µM | 8.25 µM | 8.15 | 4.92 | 1.79 µM | 2.06 µM | 5.87 µM | 0.901 µM | 4.08 µM | 0.591 | 0.66 µM | 4.06 µM | 2.03 µM | 1.3 | 0.754 µM |
| CC[C@H](C)C(=O)O[C@H]1C[C@@H](C)C=C2C=C[C@H](C)[C@H](CC[C@@H]3C[C@@H](O)CC(=O)O3)[C@H]21 | > 100 | > 100 | > 100 | > 100 | 21.3 µM and 6.82 µM and 7.71 µM | > 100 µM and 20.8 µM and > 30 µM | 18.9 µM and 17.2 µM and > 30 µM | > 100 |  | > 100 µM and 53.7 µM and > 30 µM | 0.967 µM and 1.76 µM | 26.3 µM and 19.3 µM | 27.4 µM and 13.5 µM | 16.2 µM and 25.2 µM | 0.932 | 12.9 µM and 6.14 µM | 2.83 µM and 2.59 µM | 32.5 µM and 19.6 µM |  | 8.88 µM and 8.95 µM |
| CCN(CC)CCC(CNc1c(C)cnc2cc(Cl)ccc12)c1ccc(Cl)c(Cl)c1 (stereo not drawn) | 16.2 | 17.1 | 9.31 | 21.1 | 3.14 µM | 5.74 µM | 4.77 µM | 7.08 | 5.43 | 6.49 µM | 4.1 µM | 5.03 µM | 2.81 µM | 6.81 µM | 1.59 | 2.37 µM | 2.18 µM | 2.22 µM | 2.27 | 2.15 µM |
| Nc1nc(N)c2cc(S(=O)(=O)c3ccccc3)ccc2n1 | > 100 | > 100 | > 100 | > 100 | > 100 µM | > 100 µM | > 100 µM | > 100 | > 100 | > 100 µM | 0.838 µM | 4.36 µM | 2.93 µM | 5.68 µM | 0.516 | 1.01 µM | 0.511 µM | 9.57 µM | 1.24 | 6.04 µM |
| Nc1n[nH]c2cc(F)c([C@@H]3Nc4c(F)cc5[nH]ncc5c4[C@H]4C5CCC(C5)[C@@H]34)cc12 (stereo partly drawn) | 8.04 | 27.2 | 28.7 | 3.73 | 4.41 µM | 7.85 µM | 6.77 µM | 26.6 | 5.7 | 5.22 µM | 0.149 µM | 2.27 µM | 0.127 µM | 0.105 µM | 0.144 | 0.211 µM | 0.162 µM | 5.89 µM | 0.127 | 0.145 µM |
